Legend:
Test in all cases: relative viability (nuclei count vs DMSO), 5 days (fraction); higher = more cells survive
Metformin + Pictilisib = compound: CN(C)C(=N)NC(=N)N [Metformin] + CS(=O)(=O)N1CCN(Cc2cc3nc(-c4cccc5[nH]ncc45)nc(N4CCOCC4)c3s2)CC1 [Pictilisib] (partner 1 µM)
Procedure, shortened: (§1)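 One day after seeding in 1536-well plates, lung cancer cell lines were dosed by pin tool. Dosing was either single-drug or a fixed anchor-drug dose plus five library-drug doses (not always all listed) in √10 steps. After 5 days, nuclei were stained in one fix-and-stain step and counted on 4× images, and relative viability is the nuclei count of treated wells over that of vehicle wells, given as the median of duplicate plates.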

Metformin + Foretinib = compound: CN(C)C(=N)NC(=N)N [Metformin] + COc1cc2c(Oc3ccc(NC(=O)C4(C(=O)Nc5ccc(F)cc5)CC4)cc3F)ccnc2cc1OCCCN1CCOCC1 [Foretinib] (partner 0.25 µM)
Procedure, shortened: as §1

Apatinib + Tozasertib = compound: N#CC1(c2ccc(NC(=O)c3cccnc3NCc3ccncc3)cc2)CCCC1 [Apatinib] + Cc1cc(Nc2cc(N3CCN(C)CC3)nc(Sc3ccc(NC(=O)C4CC4)cc3)n2)n[nH]1 [Tozasertib] (partner 0.1 µM)
Procedure, shortened: as §1

Apatinib + Olaparib = compound: N#CC1(c2ccc(NC(=O)c3cccnc3NCc3ccncc3)cc2)CCCC1 [Apatinib] + O=C(c1cc(Cc2n[nH]c(=O)c3ccccc23)ccc1F)N1CCN(C(=O)C2CC2)CC1 [Olaparib] (partner 8 µM)
Procedure, shortened: as §1

Row | Cell Line | relative viability (Metformin + Pictilisib; first compound 10 µM) | relative viability (Metformin + Pictilisib; first compound 31.62 µM) | relative viability (Metformin + Pictilisib; first compound 100 µM) | relative viability (Metformin + Pictilisib; first compound 316.23 µM) | relative viability (Metformin + Pictilisib; first compound 1000 µM) | relative viability (Metformin + Foretinib; first compound 10 µM) | relative viability (Metformin + Foretinib; first compound 31.62 µM) | relative viability (Metformin + Foretinib; first compound 100 µM) | relative viability (Metformin + Foretinib; first compound 316.23 µM) | relative viability (Metformin + Foretinib; first compound 1000 µM) | relative viability (Apatinib + Tozasertib; first compound 0.08 µM) | relative viability (Apatinib + Tozasertib; first compound 0.8 µM) | relative viability (Apatinib + Tozasertib; first compound 2.53 µM) | relative viability (Apatinib + Tozasertib; first compound 8 µM) | relative viability (Apatinib + Olaparib; first compound 0.08 µM) | relative viability (Apatinib + Olaparib; first compound 0.253 µM) | relative viability (Apatinib + Olaparib; first compound 0.8 µM) | relative viability (Apatinib + Olaparib; first compound 2.53 µM) | relative viability (Apatinib + Olaparib; first compound 8 µM) | relative viability (Apatinib + Tozasertib; first compound 0.253 µM)
1 | EPLC-272H | 0.362 | 0.314 | 0.364 | 0.305 | 0.302 | 0.864 | 0.909 | 0.978 | 0.784 | 1.09 | 0.28 | 0.248 | 0.18 | 0.144 | 0.759 | 0.806 | 0.822 | 0.605 | 0.604 | –
2 | NCI-H2087 | 0.909 | 1.01 | 0.772 | 0.782 | 0.957 | – | 0.966 | 1.12 | 0.891 | 1.06 | 0.241 | 0.215 | 0.179 | 0.143 | 0.633 | 0.653 | 0.541 | 0.645 | 0.493 | 0.223
3 | NCI-H647 | 0.469 | 0.535 | 0.479 | 0.441 | 0.292 | 1.08 | 1.07 | 1.26 | 0.932 | 1.1 | 0.288 | 0.19 | 0.144 | 0.206 | 0.65 | 0.794 | 0.508 | 0.418 | 0.305 | 0.503
4 | NCI-H661 | 0.406 | 0.464 | 0.485 | 0.552 | 0.518 | 0.809 | 0.877 | 0.879 | 0.834 | 0.916 | 0.333 | 0.357 | 0.388 | 0.392 | 0.719 | 0.726 | 0.724 | 0.687 | 0.641 | 0.325
5 | NCI-H1793 | 0.29 | 0.399 | 0.304 | 0.268 | 0.38 | 0.78 | – | 1.01 | 0.743 | 1.18 | 0.38 | 0.245 | 0.209 | 0.226 | 0.959 | 0.897 | 0.813 | 0.798 | 0.555 | 0.369
6 | NCI-H358 | 0.356 | 0.424 | 0.44 | 0.332 | 0.378 | 0.726 | 0.723 | 0.658 | 0.732 | 0.813 | 0.113 | 0.0953 | 0.108 | 0.0888 | 0.681 | 0.559 | 0.553 | 0.569 | 0.453 | 0.103
7 | LCLC-97TM1 | 0.257 | 0.196 | 0.255 | 0.234 | 0.223 | 0.912 | 0.808 | 0.875 | 0.895 | 1.02 | 0.226 | 0.173 | 0.2 | 0.165 | 0.524 | 0.541 | 0.353 | 0.351 | 0.172 | 0.255
8 | NCI-H1944 | 0.324 | 0.351 | 0.371 | 0.293 | 0.338 | 0.881 | 0.995 | 1.03 | 0.924 | 0.996 | 0.23 | 0.239 | 0.238 | 0.223 | 0.407 | 0.378 | 0.37 | 0.346 | 0.319 | 0.229
9 | 201T | – | 0.709 | 0.701 | 0.688 | 0.685 | – | 1.21 | 1.38 | 1.01 | 0.824 | 0.96 | 0.897 | 0.808 | 0.615 | 0.872 | 0.817 | 0.789 | 0.9 | 0.749 | 0.878
10 | CAL-12T | 0.423 | 0.511 | 0.527 | 0.415 | 0.518 | 1.25 | 1.32 | 1.04 | 1.04 | 0.76 | 0.298 | 0.241 | 0.198 | 0.191 | 0.723 | 0.673 | 0.647 | 0.638 | 0.583 | 0.34

— the supplement of paper PMC10307832
